Results: ChEMBL document CHEMBL1221220, “Transport and signaling via the amino acid binding site of the yeast Gap1 amino acid transceptor” (Nat Chem Biol, 2009)
Changes are numbered by the printed parent chain. Calls of active or inactive are those of the source. The calls are words filed in the database; no cut-off is given here.

How the values were obtained:
[1] = system: T1, General amino-acid permease GAP1 (Saccharomyces cerevisiae), P19145 [I382C]; experiment: Induction of yeast Gap1 I382C mutant-mediated trehalose activation at 2 mM in presence of 10 mM MTSEA treated before compound addition
T1 sequence (whole entry): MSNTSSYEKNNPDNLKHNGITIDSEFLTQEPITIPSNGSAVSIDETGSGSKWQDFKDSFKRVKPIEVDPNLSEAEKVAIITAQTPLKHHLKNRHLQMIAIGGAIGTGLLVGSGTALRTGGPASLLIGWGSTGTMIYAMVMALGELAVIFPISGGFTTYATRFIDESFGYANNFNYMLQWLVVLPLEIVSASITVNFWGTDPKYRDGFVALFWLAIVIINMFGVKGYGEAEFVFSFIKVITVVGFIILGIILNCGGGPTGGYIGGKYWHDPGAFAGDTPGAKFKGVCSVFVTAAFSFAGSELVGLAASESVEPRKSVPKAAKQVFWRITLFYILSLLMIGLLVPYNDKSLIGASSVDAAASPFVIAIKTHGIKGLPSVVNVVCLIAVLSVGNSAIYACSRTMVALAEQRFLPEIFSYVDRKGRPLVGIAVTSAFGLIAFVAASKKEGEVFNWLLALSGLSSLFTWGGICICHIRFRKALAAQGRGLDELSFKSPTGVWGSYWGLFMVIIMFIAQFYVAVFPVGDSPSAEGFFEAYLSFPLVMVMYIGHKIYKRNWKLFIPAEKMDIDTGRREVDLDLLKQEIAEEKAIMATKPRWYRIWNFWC

[2] = system: T2, General amino-acid permease GAP1 (Saccharomyces cerevisiae), P19145 [I384C]; experiment: Induction of yeast Gap1 I384C mutant-mediated amino acid uptake at 2 mM in presence of 10 mM MTSEA treated before compound addition
T2 sequence (whole entry): T1 sequence (whole entry) with C382I, I384C

Saccharomyces cerevisiae = experiment: Activation of yeast Gap1 L404 mutant-mediated amino acid uptake at 10 mM
[3] = system: T3, General amino-acid permease GAP1 (Saccharomyces cerevisiae), P19145 [T400C]; experiment: Induction of yeast Gap1 T400C mutant-mediated amino acid uptake at 2 mM in presence of 10 mM MTSEA treated before compound addition
T3 sequence (whole entry): T1 sequence (whole entry) with C382I, T400C

[4] = system: T4, General amino-acid permease GAP1 (Saccharomyces cerevisiae), P19145 [A403C]; experiment: Induction of yeast Gap1 A403C mutant-mediated amino acid uptake at 2 mM in presence of 10 mM MTSEA treated before compound addition
T4 sequence (whole entry): T1 sequence (whole entry) with C382I, A403C

inhibition [1]: Active
Activity [2]: Active
Activity (Saccharomyces cerevisiae): inactive
Activity [3]: Active
Activity [4]: Active
SMILES: NC(=O)NCCC[C@H](N)C(=O)O
